From patent publication US10111854B2, “Synthesis and use of amine-containing flavonoids as potent anti-leishmanial agents” (The Hong Kong Polytechnic University, priority 2014, dated 2018)

Key:
[1] = test system: L. amazonensis LV78 promastigotes; assay: Anti-promastigote activity (MTS assay), L. amazonensis LV78; assay type: cell-based; conditions: 72 hours
Outline: (§1)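 Promastigotes (1×10^5 per well) in Schneider's medium pH 6.9 with 10% FBS, exposed to serial compound concentrations for 72 h at 27 °C. Viability by MTS/PMS reduction over 4 h, OD 490 nm; IC50 derived.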

[2] = test system: L. major FV1 promastigotes; assay: Anti-promastigote activity (MTS assay), L. major FV1; assay type: cell-based; conditions: 72 hours
Outline: as §1

[3] = test system: L. donovani HU3 promastigotes; assay: Anti-promastigote activity (MTS assay), L. donovani HU3; assay type: cell-based; conditions: 72 hours
Outline: as §1

[4] = test system: L. donovani Ld39 promastigotes; assay: Anti-promastigote activity (MTS assay), L. donovani Ld39; assay type: cell-based; conditions: 72 hours
Outline: as §1

RAW264.7 cells [5] = assay: Cytotoxicity, RAW264.7 macrophages; assay type: cell-based; conditions: murine macrophages RAW264.7
Protocol: Promastigotes of visceral L. donovani Ld39 and LdHU3, and cutaneous L. amazonensis LV78, L. braziliensis UA847 and L. major FV1 were employed in the study. All strains were cultured in Schneider's Drosophila Medium (Invitrogen), pH 6.9 supplemented with 10% (v/v) heat inactivated fetal bovine serum (Hyclone) with 4 mM glutamine (Sigma) and 25 μg/mL gentamicin solution (Invitrogen) at 27° C. for 4 days. RAW264.7 cells were cultured in supplemented DMEM media with 10% heat inactivated FBS and 100 U/mL penicillin and 100 μg/mL of streptomycin. They were maintained at 37° C. in a humidified atmosphere with 5% CO2. The cells were split constantly after a confluent monolayer has been formed. The cells were harvested by a cell scraper.
IC50 values of known antileishmanials and the amine-containing flavonoid monomers of the present invention to promastigotes (L. amazonensis LV78, L major FV1, L. donovani HU3, L. donovani 39), macrophages (Raw 264.7 and PEM) and mouse fibroblast (L929) were determined. The anti-promastigotes activities and cytotoxicity of the amine-containing flavonoid monomers of the invention are shown in Table 1.

[6] = test system: peritoneal elicited macrophages (PEM); assay: Cytotoxicity, peritoneal elicited macrophages (PEM); assay type: cell-based, mouse; conditions: peritoneal elicited macrophages; read-out: Cytotoxicity IC50, PEM
[7] = test system: L. amazonensis LV78 amastigotes; assay: Anti-amastigote activity in infected PEM, L. amazonensis LV78; assay type: cell-based; conditions: infected PEM, 3 days, Giemsa
Outline: (§2)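 Adherent mouse PEM are infected with late-log promastigotes (20 parasites per macrophage) for 24 h, washed, and cultured with drug in supplemented DMEM with 10% FBS for 72 h at 37 °C. Percent infected cells and amastigotes per 100 macrophages are scored by Giemsa staining and IC50 is derived.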

[8] = test system: L. braziliensis UA847 amastigotes; assay: Anti-amastigote activity in infected PEM, L. braziliensis UA847; assay type: cell-based; conditions: 3 days, Giemsa, read-out: Anti-amastigote activity IC50, L. baziliensis UA847
Outline: as §2

[9] = test system: L. donovani Ld39 amastigotes (SSG-resistant); assay: Anti-amastigote activity in infected PEM, L. donovani Ld39; assay type: cell-based; conditions: infected PEM, 3 days, Giemsa; SSG-resistant
Outline: as §2

RAW264.7 cells [10] = assay: Reactive oxygen species (ROS) level, DCFDA, RAW264.7; assay type: cell-based, murine
Protocol: (§3) 50,000 RAW264.7 were seeded in each well of black 96-well plates overnight. Next day, RAW264.7 cells were pre-loaded with 10 μM dichlorofluorescein diacetate (DCFDA) (Abcam) for 1 hr at 37° C. with 5% CO2. A control of non-DCFDA stained cells was also included. The DCFDA-contained supplemented DMEM media was removed. The cells were re-suspended with 10 μM or 30 μM of respective tested compounds and positive control, tert-butyl hydroperoxide. In Leishmania, 1×10^7 promastigotes were also pre-loaded with 10 μM DCFDA at 27° C. for 1 hr. After removing the DCFDA-contained media, the promastigotes were seeded into black 96-well plate and incubated with 30 μM of respective compounds or positive control. The ROS level was determined at different periods of time including 2, 4, 6, 8, 20, 46 and 72 hr using microplate reader (excitation: 485 nm and emission: […]).
(§4) The ROS levels in both macrophage RAW264.7 and L. amazonensis promastigotes was measured by dichlorofluorescein diacetate (DCFDA) dye which is permeable to the cells. With oxidative stress, DCFDA would be oxidized to fluorescent DCF which is an indicator of intracellular ROS level. RAW cells or L. amazonensis promastigotes were pre-loaded with 10 μM of DCFDA for 1 hr, washed and exposed to 39, FM09, pentamidine and amphotericin B for different period of time (2, 4, 6, 8, 20, 46 and 72 hr). The fluorescence level was measured at the 520 nm using 485 nm as an excitation wavelength. 0.1% DMSO or 0.3% DMSO was used as a solvent control. The fluorescent value has been subtracted from non-DCFDA stained cells. The values were presented as mean±standard error of mean.

[11] = test system: L. amazonensis LV78 promastigotes; assay: Reactive oxygen species (ROS) level, DCFDA, promastigotes; assay type: cell-based; conditions: 30 μM
Protocol: as §3, §4

Structure (SMILES): C[C@@H]1[C@H](O)[C@@H](C)/C=C/C=C/C=C/C=C/C=C/C=C/C=C/[C@H](O[C@@H]2O[C@H](C)[C@@H](O)[C@H](N)[C@@H]2O)C[C@@H]2O[C@](O)(C[C@@H](O)C[C@@H](O)[C@H](O)CC[C@@H](O)C[C@@H](O)CC(=O)O[C@H]1C)C[C@H](O)[C@H]2C(=O)O [Amphotericin B]
- IC50 [1]: 240 ± 30 nM
- IC50 [2]: 290 ± 50 nM
- IC50 [3]: 200 nM
- IC50 [4]: 95 ± 20 nM
- IC50 (RAW264.7 cells [5]): 12000 ± 2500 nM
- IC50 [6]: 7400 ± 400 nM
- IC50 [7]: 55 ± 29 nM
- IC50 [8]: 49 ± 10 nM
- IC50 [9]: 62 nM
- RAW264.7 ROS Level, Relative fold (RF) (RAW264.7 cells [10]; 10 μM, 2 hr): 1.4 fold
- RAW264.7 ROS Level, Relative fold (RF) (RAW264.7 cells [10]; 10 μM, 4 hr): 1.4 fold
- RAW264.7 ROS Level, Relative fold (RF) (RAW264.7 cells [10]; 10 μM, 6 hr): 1.4 fold
- RAW264.7 ROS Level, Relative fold (RF) (RAW264.7 cells [10]; 10 μM, 8 hr): 1.2 fold
- RAW264.7 ROS Level, Relative fold (RF) (RAW264.7 cells [10]; 10 μM, 20 hr): 1.0 fold
- ROS induction in macrophages (RAW264.7 cells [10]; 10 μM, RAW264.7): No ROS induction
- RAW264.7 ROS Level, Relative fold (RF) (RAW264.7 cells [10]; 30 μM, 2 hr): 1.6 fold
- RAW264.7 ROS Level, Relative fold (RF) (RAW264.7 cells [10]; 30 μM, 4 hr): 1.6 fold
- RAW264.7 ROS Level, Relative fold (RF) (RAW264.7 cells [10]; 30 μM, 6 hr): 1.5 fold
- RAW264.7 ROS Level, Relative fold (RF) (RAW264.7 cells [10]; 30 μM, 20 hr): 1.3 fold
- RAW264.7 ROS Level, Relative fold (RF) (RAW264.7 cells [10]; 30 μM, 46 hr): 1.3 fold
- L. amazon LV78 promastigote ROS Level, Relative fold (RF) ([11]; 2 hr): 4.5 fold
- L. amazon LV78 promastigote ROS Level, Relative fold (RF) ([11]; 4 hr): 5.6 fold
- L. amazon LV78 promastigote ROS Level, Relative fold (RF) ([11]; 6 hr): 7.5 fold
- L. amazon LV78 promastigote ROS Level, Relative fold (RF) ([11]; 20 hr): 21 fold
- L. amazon LV78 promastigote ROS Level, Relative fold (RF) ([11]; 46 hr): 27.1 fold
- L. amazon LV78 promastigote ROS Level, Relative fold (RF) ([11]; 72 hr): 24.9 fold
